In patent publication US8076487B2, “Pyridone derivative and herbicide” (Kumiai Chemical Industry Co., Ltd., priority 2006, dated 2011):

Legend:
Type in all cases: in vivo
[1] = tested on: velvetleaf (Abutilon theophrasti medicus); experiment: Test Example 3: herbicidal effect by application to upland field (foliage treatment); settings: 14th day after application; for herbicidal effect, Velvetleaf: foliage treatment, 1,000 g active ingredient per 1 hectare, greenhouse; for herbicidal effect (index), Velvetleaf: foliage treatment, plants grown two weeks, 1,000 g active ingredient per hectare
In short: (§1)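 Effect scores come from a standard grading 14 days after plants, grown from seed for two weeks in field soil in a greenhouse, were sprayed over the top with wettable powder in water at 1,000 g active ingredient per hectare.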

[2] = tested on: slender amaranth (Amaranthus viridis L.); experiment: as above; settings: 14th day after application; for herbicidal effect, Slender Amaranth: foliage treatment, 1,000 g active ingredient per 1 hectare, greenhouse; for herbicidal effect (index), Slender Amaranth: foliage treatment, plants grown two weeks, 1,000 g active ingredient per hectare
In short: as §1

[3] = tested on: green foxtail (Setaria viridis (L.) P. Beauv.); experiment: as above; settings: 14th day after application; for herbicidal effect, Green Foxtail: foliage treatment, 1,000 g active ingredient per 1 hectare, greenhouse; for herbicidal effect (index), Green Foxtail: foliage treatment, plants grown two weeks, 1,000 g active ingredient per hectare
In short: as §1

[4] = tested on: barnyardgrass (Echinochloa crus-galli (L.) P. Beauv. var. crus-galli); experiment: as above; settings: 14th day after application; for herbicidal effect, Barnyardgrass: foliage treatment, 1,000 g active ingredient per 1 hectare, greenhouse; for herbicidal effect (index), Barnyardgrass: foliage treatment, plants grown two weeks, 1,000 g active ingredient per hectare
In short: as §1

[5] = tested on: velvetleaf (Abutilon theophrasti medicus); experiment: Test Example 2: herbicidal effect by soil application to upland field; settings: soil surface spray, upland field soil, 1,000 g active ingredient per hectare, 21st day after application
In short: (§2)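 Scoring on a standard scale took place 21 days after application, with plants kept in a greenhouse. Active ingredient (1,000 g/ha, as diluted wettable powder, 1,000 L/ha) was sprayed evenly onto soil directly after sowing and covering seeds.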

[6] = tested on: slender amaranth (Amaranthus viridis L.); experiment: as above; settings: soil surface spray, upland field soil, 1,000 g active ingredient per hectare, 21st day after application
In short: as §2

[7] = tested on: green foxtail (Setaria viridis (L.) P. Beauv.); experiment: as above; settings: soil surface spray, upland field soil, 1,000 g active ingredient per hectare, 21st day after application
In short: as §2

[8] = tested on: barnyardgrass (Echinochloa crus-galli (L.) P. Beauv. var. crus-galli); experiment: as above; settings: soil surface spray, upland field soil, 1,000 g active ingredient per hectare, 21st day after application
In short: as §2

[9] = tested on: early watergrass (Echinochloa oryzicola Vasing); experiment: Test Example 1: herbicidal effect by soil application to paddy field; settings: paddy field soil application; active ingredient 1,000 g per 1 hectare; wettable powder added dropwise to water surface the day after sowing; examined on the 21st day after application
In short: (§3)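 Under greenhouse conditions, seeds sown on puddled paddy soil in 100 cm2 pots under 3 cm of standing water received the test compound; injury was assessed with a standard scoring scheme three weeks (day 21) after treatment.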

[10] = tested on: Japanese bulrush (Scirpus juncoides Roxb.); experiment: as above; settings: paddy field soil application; active ingredient 1,000 g per 1 hectare; wettable powder added dropwise to water surface the day after sowing; examined on the 21st day after application
In short: as §3

[11] = tested on: heartshape false pickerelweed (Monochoria vaginalis (Burm.f.) C.Presl); experiment: as above; settings: paddy field soil application; active ingredient 1,000 g per 1 hectare; wettable powder added dropwise to water surface the day after sowing; examined on the 21st day after application
In short: as §3

| SMILES | herbicidal effect, Velvetleaf [1] | herbicidal effect, Slender Amaranth [2] | herbicidal effect, Green Foxtail [3] | herbicidal effect, Barnyardgrass [4] | herbicidal effect (index), Velvetleaf [5] | herbicidal effect (index), Slender Amaranth [6] | herbicidal effect (index), Green Foxtail [7] | herbicidal effect (index), Barnyardgrass [8] | herbicidal effect, Echinochloa oryzicola Vasing [9] | herbicidal effect, Scirpus juncoides Roxb. [10] | herbicidal effect, Monochoria vaginalis (Burm. f.) C. Presl [11] | herbicidal effect (index), Velvetleaf [1] | herbicidal effect (index), Slender Amaranth [2] | herbicidal effect (index), Green Foxtail [3] | herbicidal effect (index), Barnyardgrass [4] |
| --- | --- | --- | --- | --- | --- | --- | --- | --- | --- | --- | --- | --- | --- | --- | --- |
| CC(C)n1ncc(C(=O)c2ccc(C(F)(F)F)n(C)c2=O)c1O [IV-219] | 5 (90% or more of herbicidal effect and crop phytotoxicity) | 5 (90% or more of herbicidal effect and crop phytotoxicity) | 3 (50 to less than 70% of herbicidal effect and crop phytotoxicity) | 5 (90% or more of herbicidal effect and crop phytotoxicity) | 5 (90% or more of herbicidal effect and crop phytotoxicity) | 5 (90% or more of herbicidal effect and crop phytotoxicity) | 3 (50 to less than 70% of herbicidal effect and crop phytotoxicity) | 5 (90% or more of herbicidal effect and crop phytotoxicity) | 5 (90% or more of herbicidal effect and crop phytotoxicity) | 5 (90% or more of herbicidal effect and crop phytotoxicity) | 5 (90% or more of herbicidal effect and crop phytotoxicity) |  |  |  |  |
| Cn1ncc(C(=O)c2ccc(Cl)n(C)c2=O)c1O [IV-243] | 5 (90% or more of herbicidal effect and crop phytotoxicity) | 5 (90% or more of herbicidal effect and crop phytotoxicity) | 4 (70 to less than 90% of herbicidal effect and crop phytotoxicity) | 5 (90% or more of herbicidal effect and crop phytotoxicity) | 5 (90% or more of herbicidal effect and crop phytotoxicity) | 5 (90% or more of herbicidal effect and crop phytotoxicity) | 3 (50 to less than 70% of herbicidal effect and crop phytotoxicity) | 5 (90% or more of herbicidal effect and crop phytotoxicity) | 5 (90% or more of herbicidal effect and crop phytotoxicity) | 5 (90% or more of herbicidal effect and crop phytotoxicity) | 5 (90% or more of herbicidal effect and crop phytotoxicity) |  |  |  |  |
| C[S+]([O-])CCCn1c(C(F)(F)F)ccc(C(=O)C2=C(O)CCCC2=O)c1=O (stereo not drawn) [I-70] |  |  |  |  | 5 (90% or more of herbicidal effect and crop phytotoxicity) | 5 (90% or more of herbicidal effect and crop phytotoxicity) | 5 (90% or more of herbicidal effect and crop phytotoxicity) | 5 (90% or more of herbicidal effect and crop phytotoxicity) | 5 (90% or more of herbicidal effect and crop phytotoxicity) | 5 (90% or more of herbicidal effect and crop phytotoxicity) | 5 (90% or more of herbicidal effect and crop phytotoxicity) | 5 (90% or more of herbicidal effect and crop phytotoxicity) | 5 (90% or more of herbicidal effect and crop phytotoxicity) | 5 (90% or more of herbicidal effect and crop phytotoxicity) | 5 (90% or more of herbicidal effect and crop phytotoxicity) |
| CCCCCCn1c(C(F)(F)F)ccc(C(=O)C2=C(O)CCCC2=O)c1=O [I-9] |  |  |  |  | 5 (90% or more of herbicidal effect and crop phytotoxicity) | 5 (90% or more of herbicidal effect and crop phytotoxicity) | 4 (70 to less than 90% of herbicidal effect and crop phytotoxicity) | 4 (70 to less than 90% of herbicidal effect and crop phytotoxicity) | 5 (90% or more of herbicidal effect and crop phytotoxicity) | 5 (90% or more of herbicidal effect and crop phytotoxicity) | 5 (90% or more of herbicidal effect and crop phytotoxicity) | 5 (90% or more of herbicidal effect and crop phytotoxicity) | 5 (90% or more of herbicidal effect and crop phytotoxicity) | 4 (70 to less than 90% of herbicidal effect and crop phytotoxicity) | 5 (90% or more of herbicidal effect and crop phytotoxicity) |
| CC1CC(C)(C)C(O)=C(C(=O)c2ccc(C(F)(F)F)n(C)c2=O)C1=O (stereo not drawn) [II-5] | 5 (90% or more of herbicidal effect and crop phytotoxicity) | 4 (70 to less than 90% of herbicidal effect and crop phytotoxicity) | 3 (50 to less than 70% of herbicidal effect and crop phytotoxicity) | 4 (70 to less than 90% of herbicidal effect and crop phytotoxicity) | 5 (90% or more of herbicidal effect and crop phytotoxicity) | 5 (90% or more of herbicidal effect and crop phytotoxicity) | 5 (90% or more of herbicidal effect and crop phytotoxicity) | 5 (90% or more of herbicidal effect and crop phytotoxicity) | 5 (90% or more of herbicidal effect and crop phytotoxicity) | 5 (90% or more of herbicidal effect and crop phytotoxicity) | 5 (90% or more of herbicidal effect and crop phytotoxicity) |  |  |  |  |
| CCCS(=O)(=O)Oc1c(C(=O)c2ccc(C(F)(F)F)n(CC(OC)OC)c2=O)cnn1C [IV-118] | 5 (90% or more of herbicidal effect and crop phytotoxicity) | 5 (90% or more of herbicidal effect and crop phytotoxicity) | 5 (90% or more of herbicidal effect and crop phytotoxicity) | 5 (90% or more of herbicidal effect and crop phytotoxicity) | 5 (90% or more of herbicidal effect and crop phytotoxicity) | 5 (90% or more of herbicidal effect and crop phytotoxicity) | 5 (90% or more of herbicidal effect and crop phytotoxicity) | 5 (90% or more of herbicidal effect and crop phytotoxicity) | 5 (90% or more of herbicidal effect and crop phytotoxicity) | 5 (90% or more of herbicidal effect and crop phytotoxicity) | 5 (90% or more of herbicidal effect and crop phytotoxicity) |  |  |  |  |
